In general, IC50 refers to the concentration that inhibits the measured activity by half. A higher IC50 goes with weaker potency.

One experiment relates to VCaP cells. In words: VCaP growth inhibition assay (CTG). It is filed as cell-based. The conditions noted are these: Homo sapiens, 216 h, 30 pM R1881, 9-day treatment, CTG luminescence. How it is done:
Example B-2: VCaP Growth Inhibition Assay
VCaP cells (ATCC Cat #CRL-2876) are plated at 1×10^4 cells per well of a white plastic 96-well cluster plate (Thermo Scientific Nunc Cat #165306) in 100 uL phenol red-free DMLEM (Gibco Cat #21063-029) media with […] (Omega Scientific Cat #FB-04). Cluster plates are returned to the incubator (37*C/5% CO2) for 72 hours prior to treatment. Just prior to treatment, 100 uL of phenol red-free DMEM/5% CSS and 60 pM Ri881 (Sigma Cat #R0908-10 mg) was added to each well of the cluster plates (Final R1881 concentration=30 pM). Compounds (200×) were added to each well in a volume of 1 uL, with serial dilutions (1:5) from 20 uM to 2 pM (final concentrations in well are 100 nM to 10 fMV). Cluster plates are returned to the incubator for 9 days.
After the 9-day treatment period, media was removed from the cluster plates by inversion and 100 uL room temperature CTG reagent (Promega Cat #G7573) is added to each well. The cluster plates are placed on a shaker and incubated at room temperature for 20 minutes. Following this shaking/incubation, cluster plates are read on a luminometer (BMG ClarioStar). IC50 values are obtained by graphing the RLU data vs. compound concentration with nonlinear regression 4-parameter logistic curves (GraphPad Prism).

The test system of experiment [1] is AR and CBP or p300 ternary complex. In words: Ternary complex formation assay (sandwich ELISA on lysates of treated VCaP cells: AR capture, CBP or p300 detection). The settings on record: VCaP cells treated with bifunctional for 1.5 hours; lysate; anti-AR capture, CBP or p300 antibody detection. It is filed as cell-based. How it is done:
Example B-1: Ternary Complex Formation Assay
Preparation of Mouse Anti-AR Antibody Coated 96 Well Plates
Black MaxiSorp plates: coat with 50 μL of mouse 1/50 diluted AR antibody (Monoclonal Antibody (AR 441 from Thermo Fisher); diluted in phosphate buffered saline (PBS). Spin the liquid to the bottom of the wells, if necessary. Incubate overnight at 4° C. Next day, wash 3 times with 200 μL of TBST. Block with 200 μL of blocking buffer (5% BSA in TBST) at room temperature for 2 hours (BSA: A4503 or A2153 from Sigma). Wash plates 3 times with TBST. Plates are ready for lysates
Preparation of Dimerizer Treated Lysates
Culture cells in 96 wells at 50K VCaP cells/well for at least 3 days. Plate in 5% Omega charcoal stripped FBS in total volume of 200 uL. Treat with bifunctional for 1.5 hours by adding 1 μL of 200× stock in DMSO. Aspirate media/compound. Add and pipet-to-mix 70 μL of 1× AlphaLisa Lysis Buffer to each well (Perkin Elmer, AlphaLISA SureFire Ultra, diluted in water). Pipet up and down when adding lysis buffer to disrupt cells. Let lysis proceed for 30 min at 4° C.
Incubate for 1 hour at room temperature. Flick out the lysates. Wash 3 times with TBST. Add 75 uL of rabbit CBP or p300 antibody to each well (diluted 1:5000 in blocking buffer (5% BSA in TBST). CBP antibody: (D6C5) Rabbit mAb #7389; p300 antibody: (D8Z4E) Rabbit mAb #86377. Incubate overnight at 4° C. Wash 3 times with 300 uL TBST, each time on shaker for 5-10 min. Prepare goat anti-rabbit antibody conjugated to HRP (1/100K dilution in blocking buffer) Invitrogen Catalog number: 32260. Add 75 uL of HRP-conjugated goat anti-rabbit antibody. Incubate at room temperature for 1 hour. Flick out the HRP-antibody mixture. Wash 7-8 times with TBST, each time on shaker for 10 min. Later washes try to overflow the wells so that no residual HRP remains bound to the sides of the well. Prepare and add 75 uL/well of QuantaRed Enhance Chemifluorescent HRP Substrate solution. Immediately read fluorescence on BMG ClarioStar (ex: 570/em 585), and repeat the read in 5 minutes and 15 minutes.
(ELISA stands for enzyme-linked immunosorbent assay.)

Turning to `CC(=O)N1CCc2c(c(N3CCCc4cc(-c5cnn(C)c5)c(C(F)F)cc43)nn2C2CCN(CCCOc3ccc(-c4ccc(N5C(=S)N(c6ccc(C#N)c(C(F)(F)F)c6)C(=O)C5(C)C)cc4)cc3)CC2)C1` [Compound 1, 4-[3-[4-[4-[3-[4-[5-acetyl-3-[7-(difluoromethyl)-6-(1-methylpyrazol-4-yl)-3,4-dihydro-2H-quinolin-1-yl]-6,7-dihydro-4H-pyrazolo[4,3-c]pyridin-1-yl]-1-piperidyl]propoxy]phenyl]phenyl]-4,4-dimethyl-5-oxo-2-thioxo-imidazolidin-1-yl]-2-(trifluoromethyl)benzonitrile], in the experiment with VCaP cells, the concentration for half-maximal inhibition (IC50) is > 100 nM. In addition, the “Average Ternary Complex” value in experiment [1] is “B (B is >1 nM and ≤10 nM)”.
As for `CC(=O)N1CCc2c(c(N3CCCc4cc(-c5cnn(C)c5)c(C(F)F)cc43)nn2C2CCN(CCOCCOc3ccc(C4CCN(c5ccc(C#N)c(C(F)(F)F)c5)CC4)cc3)CC2)C1` [Compound 2, 4-[4-[4-[2-[2-[4-[5-acetyl-3-[7-(difluoromethyl)-6-(1-methylpyrazol-4-yl)-3,4-dihydro-2H-quinolin-1-yl]-6,7-dihydro-4H-pyrazolo[4,3-c]pyridin-1-yl]-1-piperidyl]ethoxy]ethoxy]phenyl]-1-piperidyl]-2-(trifluoromethyl)benzonitrile], the “Average Ternary Complex” value in experiment [1] was “D (D is active and >100 nM)”.
Turning to `CC(=O)N1CCc2c(c(N3CCCc4cc(-c5cnn(C)c5)c(C(F)F)cc43)nn2C2CCN(CCCCOc3ccc(C4CCN(c5ccc(C#N)c(C(F)(F)F)c5)CC4)cc3)CC2)C1` [Compound 3, 4-[4-[4-[4-[4-[5-acetyl-3-[7-(difluoromethyl)-6-(1-methylpyrazol-4-yl)-3,4-dihydro-2H-quinolin-1-yl]-6,7-dihydro-4H-pyrazolo[4,3-c]pyridin-1-yl]-1-piperidyl]butoxy]phenyl]-1-piperidyl]-2-(trifluoromethyl)benzonitrile], the “Average Ternary Complex” value in experiment [1] is “D (D is active and >100 nM)”.
In the case of `CC(=O)N1CCc2c(c(N3CCCc4cc(-c5cnn(C)c5)c(C(F)F)cc43)nn2C2CCN(CCCOc3ccc(C4CCN(c5ccc(C#N)c(C(F)(F)F)c5)CC4)cc3)CC2)C1` [Compound 4, 4-[4-[4-[3-[4-[5-acetyl-3-[7-(difluoromethyl)-6-(1-methylpyrazol-4-yl)-3,4-dihydro-2H-quinolin-1-yl]-6,7-dihydro-4H-pyrazolo[4,3-c]pyridin-1-yl]-1-piperidyl]propoxy]phenyl]-1-piperidyl]-2-(trifluoromethyl)benzonitrile], in the experiment with VCaP cells, the IC50 was > 100 nM. Also, the “Average Ternary Complex” value in experiment [1] was “D (D is active and >100 nM)”.
In the experiment with VCaP cells, `CNC(=O)N1CCc2c(c(N3CCCc4cc(-c5cnn(C)c5)c(C(F)F)cc43)nn2C2CCN(C(=O)CC3CCN(c4ccc([C@H]5c6ccc(O)cc6CC[C@H]5c5ccccc5)cc4)CC3)CC2)C1` [Compound 6] displayed an IC50 of 1 to 100 nM.
`CNC(=O)N1CCc2c(c(N3CCCc4cc(-c5cnn(C)c5)c(C(F)F)cc43)nn2C2CCN(C(=O)CCC3CCN(c4ccc([C@H]5c6ccc(O)cc6CC[C@H]5c5ccccc5)cc4)CC3)CC2)C1` [Compound 7] returned an IC50 in the experiment on VCaP cells of 1 to 100 nM.
On to `CNC(=O)N1CCc2c(c(N3CCCc4cc(-c5cnn(C)c5)c(C(F)F)cc43)nn2C2CCN(C(=O)COCC3CCN(c4ccc([C@H]5c6ccc(O)cc6CC[C@H]5c5ccccc5)cc4)CC3)CC2)C1` [Compound 8], for which the concentration for half-maximal inhibition (IC50) with VCaP cells fell in the range of 1 to 100 nM.
Same read-out and setting: the same measure for `CNC(=O)N1CCc2c(c(N3CCCc4cc(-c5cnn(C)c5)c(C(F)F)cc43)nn2C2CCN(C(=O)COCCCC3CCN(c4ccc([C@H]5c6ccc(O)cc6CC[C@H]5c5ccccc5)cc4)CC3)CC2)C1` [Compound 9]: 1 to 100 nM; for `CNC(=O)N1CCc2c(c(N3CCCc4cc(-c5cnn(C)c5)c(C(F)F)cc43)nn2C2CCN(C(=O)COCCOCCN3CCN(CC4CCN(c5ccc([C@H]6c7ccc(O)cc7CC[C@H]6c6ccccc6)cc5)CC4)CC3)CC2)C1` [Compound 11]: > 100 nM.
As for `CC(=O)N1CCc2c(c(N3CCCc4cc(C#N)ccc43)nn2C2CCN(C(=O)C3CCN(c4ccc(C5CCN(c6ccc(C#N)c(C(F)(F)F)c6)CC5)cc4)CC3)CC2)C1` [Compound 12, 1-[5-acetyl-1-[1-[1-[4-[1-[4-cyano-3-(trifluoromethyl)phenyl]-4-piperidyl]phenyl]piperidine-4-carbonyl]-4-piperidyl]-6,7-dihydro-4H-pyrazolo[4,3-c]pyridin-3-yl]-3,4-dihydro-2H-quinoline-6-carbonitrile], the concentration for half-maximal inhibition (IC50) in the experiment with VCaP cells was > 100 nM. Also, the “Average Ternary Complex” value in experiment [1] was “D (D is active and >100 nM)”.
Consider `CC(=O)N1CCc2c(c(N3CCCc4cc(C#N)ccc43)nn2C2CCN(CC3CCN(c4ccc(C5CCN(c6ccc(C#N)c(C(F)(F)F)c6)CC5)cc4)CC3)CC2)C1` [Compound 13, 1-[5-acetyl-1-[1-[[1-[4-[1-[4-cyano-3-(trifluoromethyl)phenyl]-4-piperidyl]phenyl]-4-piperidyl]methyl]-4-piperidyl]-6,7-dihydro-4H-pyrazolo[4,3-c]pyridin-3-yl]-3,4-dihydro-2H-quinoline-6-carbonitrile], for which, in the experiment on VCaP cells, the IC50 is > 100 nM. Also, in experiment [1], the “Average Ternary Complex” value was “D (D is active and >100 nM)”.
`CC(=O)N1CCc2c(c(-c3cccc4cc(-c5ccc(CCC6CCN(c7ccc(C8CCN(c9ccc(C#N)c(C(F)(F)F)c9)CC8)cc7)CC6)nc5)ncc34)nn2C2CCOCC2)C1` [Compound 14, 4-[4-[4-[4-[2-[5-[8-(5-acetyl-1-tetrahydropyran-4-yl-6,7-dihydro-4H-pyrazolo[4,3-c]pyridin-3-yl)-3-isoquinolyl]-2-pyridyl]ethyl]-1-piperidyl]phenyl]-1-piperidyl]-2-(trifluoromethyl)benzonitrile]: the IC50 with VCaP cells is > 100 nM. Further, in experiment [1], the “Average Ternary Complex” value was “D (D is active and >100 nM)”.
`CC(=O)N1CCc2c(c(-c3cccc4cc(-c5cnn(CCOC6CCN(c7ccc(C8CCN(c9ccc(C#N)c(C(F)(F)F)c9)CC8)cc7)CC6)c5)ncc34)nn2C2CCOCC2)C1` [Compound 15, 4-[4-[4-[4-[2-[4-[8-(5-acetyl-1-tetrahydropyran-4-yl-6,7-dihydro-4H-pyrazolo[4,3-c]pyridin-3-yl)-3-isoquinolyl]pyrazol-1-yl]ethoxy]-1-piperidyl]phenyl]-1-piperidyl]-2-(trifluoromethyl)benzonitrile] registered a concentration for half-maximal inhibition (IC50) with VCaP cells of 1 to 100 nM. The “Average Ternary Complex” value in experiment [1] was “D (D is active and >100 nM)”.
Consider `CC(=O)N1CCc2c(c(N3CCCc4cc(-c5cnn(C)c5)c(C(F)F)cc43)nn2C2CCN(C3CCC(Oc4ccc(-c5ccc(N6C(=S)N(c7ccc(C#N)c(C(F)(F)F)c7)C(=O)C6(C)C)cc5)cc4)C3)CC2)C1` (centres unmarked) [Compound 18], for which the “Average Ternary Complex” value in experiment [1] was “B (B is >1 nM and ≤10 nM)”.
Consider `CC(=O)N1CCc2c(c(N3CCCc4cc(-c5cnn(C)c5)c(C(F)F)cc43)nn2C2CCN(C3CC(Oc4ccc(-c5ccc(N6C(=S)N(c7ccc(C#N)c(C(F)(F)F)c7)C(=O)C6(C)C)cc5)cc4)C3)CC2)C1` (centres unmarked) [Compound 19], for which the “Average Ternary Complex” value in experiment [1] was “B (B is >1 nM and ≤10 nM)”.
In the case of `CC(=O)N1CCc2c(c(N3CCCc4cc(-c5cnn(C)c5)c(C(F)F)cc43)nn2C2CCN(CCOC3CCN(c4ccc(N5C(=S)N(c6ccc(C#N)c(C(F)(F)F)c6)C(=O)C5(C)C)cc4)CC3)CC2)C1` [Compound 20], in experiment [1], the “Average Ternary Complex” value was “B (B is >1 nM and ≤10 nM)”.
Consider `CC(=O)N1CCc2c(c(N3CCCc4cc(-c5cnn(C)c5)c(C(F)F)cc43)nn2C2CCN(C(=O)COC3CCN(c4ccc(N5C(=S)N(c6ccc(C#N)c(C(F)(F)F)c6)C(=O)C5(C)C)cc4)CC3)CC2)C1` [Compound 21], for which the “Average Ternary Complex” value in experiment [1] is “B (B is >1 nM and ≤10 nM)”.

The record behind these values is US20250127908A1, “HETEROBIFUNCTIONAL CONDITIONAL INHIBITORS” (Kolm Therapeutics Inc., priority 2023, published 2025).
